US12486298B2, “Fucosyltransferase specific inhibition using fucose mimetics” (THE FLORIDA INTERNATIONAL UNIVERSITY BOARD OF TRUSTEES, priority 2020, dated 2025)
“Also recorded” adds a separate entry of the source.

Key:
Type in all cases: cell-based, human
[1] = test system: THP-1 cells; assay: Inhibition of native cell surface fucosylation of THP-1 cells (flow cytometry); details: for CD15 (Le^X) expression / CD15s (sLe^X) expression: 48 hours incubation, 24- and 48-hour timepoints
Procedure: (§1) For inhibition of cell surface fucosylation, a Symphony A3 (BD Biosciences) was utilized for flow cytometry and the data acquired was analyzed using FlowJo Software (Treestar). Cells were stained using antibodies specific to CD15s (CSLEX1) from BD biosciences and CD15 (LeX) from Biolegend.
The THP-1 cell line (a human monocytic leukemia cell line) was incubated for 48 hours with either Compound 31, Compound 6A, Compound 26, or with 2F-Ac-Fucose (positive control) in RPMI 1640 medium containing 10% FBS. Cells were evaluated by flow cytometry at 24- and 48-hour timepoints for expression of CD15 (Le^X), and CD15s (sLe^X) (FIG. 11).
(§2) In each case, expression of the relevant marker (CD15 or CD15s) was quantified as the median channel fluorescence (MFI), which was then divided by the MFI of Control cells incubated in media containing DMSO at levels equivalent to that for each inhibitor tested (i.e., Y-axis are values of (MFI of inhibitor-treated cells/MFI of DMSO-incubated Control cells)×100%).

[2] = test system: KG1a cells; assay: Inhibition of native cell surface fucosylation of KG1a cells (flow cytometry); details: 72 hours incubation, 24-, 48-, 72-hour timepoints, 64 or 256 uM
Procedure: as §1
Cells were evaluated at 24-, 48-, and 72-hour timepoints of incubation to assess for effects on expression of CD15s (sLe^X) by flow cytometry (FIG. 10A).
as §2

[3] = test system: HL60 cells; assay: Inhibition of native cell surface fucosylation of HL60 cells (flow cytometry); details: 72 hours incubation, 24-, 48-, 72-hour timepoints, 6A and 26 at 64 or 256 uM
Procedure: as §1
The HL60 cell line (a human promyelocytic leukemia cell line) was incubated for 72 hours in RPMI 1640 medium containing 10% FBS with either 2F-Ac-Fucose (positive control), Compound 6A (64 or 256 uM), or Compound 26 (64 or 256 uM). Cells were evaluated by flow cytometry at 24-, 48-, and 72-hour timepoints of incubation for expression of CD15s (sLe^X) and CD15 (Le^X) (FIG. 10B).
as §2

## COC(=O)Cc1ccc2c(c1)SC1C(O2)OC(C)C(OC(C)=O)C1OC(C)=O (stereo not drawn) [Compound 31]
[1]
  time by which CD15s inhibition is evident: ≤ 48 h
  CD15 (Le^X) expression: does not inhibit CD15 expression
  CD15s (sLe^X) expression: specificity for inhibiting the creation of CD15s; also recorded: inhibits the creation of CD15s
[1]; within 48 hours
  concentration inhibiting creation of CD15s: below 50 uM

## CCOC(=O)C1=C(C23CCC4CC(CC(C4)C2)C3)OC2OC(C)C(OC(C)=O)C(OC(C)=O)C2S1 (stereo not drawn) [Compound 26]
[2]
  CD15s (sLe^X) expression: inhibited CD15s expression similar to that of 2F-Ac-Fucose
[3]
  CD15 (Le^X) expression: only inhibited the formation of CD15s
  CD15s (sLe^X) expression: inhibited the formation of CD15s
[1]
  concentration range inhibiting creation of CD15s: nanomolar range; also recorded: nM range
  time by which CD15s inhibition is evident: ≤ 24 h
  CD15 (Le^X) expression: does not inhibit CD15 expression
  CD15s (sLe^X) expression: inhibit creation of CD15s

## CC(=O)OC1C(C)OC2Oc3ccc(CC(=O)NCCOCCOCCN)cc3SC2C1OC(C)=O.O=C(O)C(F)(F)F (stereo not drawn) [Compound 6A]
[2]
  CD15s (sLe^X) expression: inhibited CD15s expression similar to that of 2F-Ac-Fucose
[3]
  CD15 (Le^X) expression: only inhibited the formation of CD15s
  CD15s (sLe^X) expression: inhibited the formation of CD15s
[1]
  concentration range inhibiting creation of CD15s: nanomolar range; also recorded: nM range
  time by which CD15s inhibition is evident: ≤ 24 h
  CD15 (Le^X) expression: does not inhibit CD15 expression
  CD15s (sLe^X) expression: inhibit creation of CD15s

## CC(=O)OC1O[C@@H](C)[C@@H](OC(C)=O)[C@@H](OC(C)=O)[C@@H]1F (stereo partly drawn) [2F-Ac-Fucose, reference compound]
[3]
  CD15 (Le^X) expression: loss of both CD15s and CD15 expression
  CD15s (sLe^X) expression: loss of both CD15s and CD15 expression
[1]
  concentration range inhibiting creation of CD15s: micromolar range
  concentration range inhibiting synthesis of CD15: micromolar range
  CD15 (Le^X) expression: inhibits synthesis of both markers
  CD15s (sLe^X) expression: inhibits synthesis of both markers
[1]; 3 μM
  CD15s (sLe^X) synthesis: not at 3 μM concentration
[1]; 50 μM
  CD15 (Le^X) synthesis: inhibition of synthesis
  CD15s (sLe^X) synthesis: inhibition of synthesis
